Data taken from patent US9771370B2, “Compounds for the inhibition of indoleamine-2,3-dioxygenase” (Merck Patent GmbH, priority 2014, dated 2017).

Molecular target: Recombinant human IDO (Homo sapiens, UniProt P14902)
Assay: Bridge-IT tryptophan fluorescence assay of human IDO-1 inhibition
Assay type: biochemical
Conditions: recombinant human IDO 7.5 nM, L-tryptophan
Procedure, shortened: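 One variant ran L-Trp at 100 μM for 90 min at 37 °C. The other pre-incubated compound for 30 min at 25 °C, then ran 50 μM L-Trp for 60 min at 25 °C.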

Recombinant human IDO, sequence (P14902 whole entry): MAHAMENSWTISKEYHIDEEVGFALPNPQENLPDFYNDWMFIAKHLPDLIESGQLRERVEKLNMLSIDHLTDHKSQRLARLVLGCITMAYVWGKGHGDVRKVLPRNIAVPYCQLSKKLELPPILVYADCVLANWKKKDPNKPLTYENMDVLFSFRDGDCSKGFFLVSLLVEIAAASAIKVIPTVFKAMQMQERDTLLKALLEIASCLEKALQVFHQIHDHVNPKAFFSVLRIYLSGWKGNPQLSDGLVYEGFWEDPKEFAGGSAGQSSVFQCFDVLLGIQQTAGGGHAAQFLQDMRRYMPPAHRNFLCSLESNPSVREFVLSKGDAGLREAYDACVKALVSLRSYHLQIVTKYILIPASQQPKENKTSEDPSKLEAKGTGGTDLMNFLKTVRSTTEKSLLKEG

Row | Structure (SMILES) | IC50 [nM]
1 | OC1CCC(F)(CCC2c3c(Cl)cccc3-c3cncn32)CC1 (single isomer, unassigned) [Compound 71b, 4-[2-[6-chloro-5H-imidazo[4,3-a]isoindol-5-yl]ethyl]-4-fluorocyclohexan-1-ol] | 100 to 1000
2 | OC1CCC(F)(CCC2c3c(Cl)cccc3-c3cncn32)CC1 (single isomer, unassigned) [Compound 71c, 4-[2-[6-chloro-5H-imidazo[4,3-a]isoindol-5-yl]ethyl]-4-fluorocyclohexan-1-ol] | > 1000
3 | OC1CCC(F)(CCC2c3c(Cl)cccc3-c3cncn32)CC1 (single isomer, unassigned) [Compound 71d, 4-[2-[6-chloro-5H-imidazo[4,3-a]isoindol-5-yl]ethyl]-4-fluorocyclohexan-1-ol] | < 100
4 | FC1(F)CCC(F)(CCC2c3c(Cl)cccc3-c3cncn32)CC1 (single isomer, unassigned) [Compound 72a, 6-chloro-5-[2-(1,4,4-trifluorocyclohexyl)ethyl]-5H-imidazo[4,3-a]isoindole] | > 1000
5 | FC1(F)CCC(F)(CCC2c3c(Cl)cccc3-c3cncn32)CC1 (single isomer, unassigned) [Compound 72b, 6-chloro-5-[2-(1,4,4-trifluorocyclohexyl)ethyl]-5H-imidazo[4,3-a]isoindole] | 100 to 1000
6 | FC1(CCC2c3nc(C(F)(F)F)ccc3-c3cncn32)CCCCC1 (single isomer, unassigned) [Compound 76a, 7-[2-(1-fluorocyclohexyl)ethyl]-10-(trifluoromethyl)-4,6,9-triazatricyclo[6.4.0.0^[2,6]]dodeca-1(8),2,4,9,11-pentaene] | > 1000
7 | FC1(CCC2c3nc(C(F)(F)F)ccc3-c3cncn32)CCCCC1 (single isomer, unassigned) [Compound 76b, 7-[2-(1-fluorocyclohexyl)ethyl]-10-(trifluoromethyl)-4,6,9-triazatricyclo[6.4.0.0^[2,6]]dodeca-1(8),2,4,9,11-pentaene] | > 1000
8 | OC(CC1c2nc(C(F)(F)F)ccc2-c2cncn21)C1CCC(F)(F)CC1 (single isomer, unassigned) [Compound 77a, 1-(4,4-difluorocyclohexyl)-2-[10-(trifluoromethyl)-4,6,9-triazatricyclo[6.4.0.0^[2,6]]dodeca-1(8),2,4,9,11-pentaen-7-yl]ethan-1-ol] | > 1000
9 | OC(CC1c2nc(C(F)(F)F)ccc2-c2cncn21)C1CCC(F)(F)CC1 (single isomer, unassigned) [Compound 77b, 1-(4,4-difluorocyclohexyl)-2-[10-(trifluoromethyl)-4,6,9-triazatricyclo[6.4.0.0^[2,6]]dodeca-1(8),2,4,9,11-pentaen-7-yl]ethan-1-ol] | > 1000
10 | OC(CC1c2nc(C(F)(F)F)ccc2-c2cncn21)C1CCC(F)(F)CC1 (single isomer, unassigned) [Compound 77c, 1-(4,4-difluorocyclohexyl)-2-[10-(trifluoromethyl)-4,6,9-triazatricyclo[6.4.0.0^[2,6]]dodeca-1(8),2,4,9,11-pentaen-7-yl]ethan-1-ol] | > 1000
11 | NC(=O)C1CCC(F)(CCC2c3ccccc3-c3cncn32)CC1 (single isomer, unassigned) [Compound 79a, 4-fluoro-4-[2-[5H-imidazo[4,3-a]isoindol-5-yl]ethyl]cyclohexane-1-carboxamide] | > 1000
12 | NC(=O)C1CCC(F)(CCC2c3ccccc3-c3cncn32)CC1 (single isomer, unassigned) [Compound 79b, 4-fluoro-4-[2-[5H-imidazo[4,3-a]isoindol-5-yl]ethyl]cyclohexane-1-carboxamide] | > 1000
13 | NC(=O)C1CCC(F)(CCC2c3ccccc3-c3cncn32)CC1 (single isomer, unassigned) [Compound 79c, 4-fluoro-4-[2-[5H-imidazo[4,3-a]isoindol-5-yl]ethyl]cyclohexane-1-carboxamide] | < 100
14 | NC(=O)C1CCC(F)(CCC2c3ccccc3-c3cncn32)CC1 (single isomer, unassigned) [Compound 79d, 4-fluoro-4-[2-[5H-imidazo[4,3-a]isoindol-5-yl]ethyl]cyclohexane-1-carboxamide] | < 100
15 | O=C(O)C1CCC(F)(CCC2c3c(F)cccc3-c3cncn32)CC1 (single isomer, unassigned) [Compound 80a, 4-fluoro-4-(2-[6-fluoro-5H-imidazo[4,3-a]isoindol-5-yl]ethyl)cyclohexane-1-carboxylic acid] | < 100
16 | O=C(O)C1CCC(F)(CCC2c3c(F)cccc3-c3cncn32)CC1 (single isomer, unassigned) [Compound 80b, 4-fluoro-4-(2-[6-fluoro-5H-imidazo[4,3-a]isoindol-5-yl]ethyl)cyclohexane-1-carboxylic acid] | 100 to 1000
17 | NC(=O)C1CCC(F)(CCC2c3c(F)cccc3-c3cncn32)CC1 (single isomer, unassigned) [Compound 81a, 4-fluoro-4-[2-[6-fluoro-5H-imidazo[4,3-a]isoindol-5-yl]ethyl]cyclohexane-1-carboxamide] | 100 to 1000
18 | NC(=O)C1CCC(F)(CCC2c3c(F)cccc3-c3cncn32)CC1 (single isomer, unassigned) [Compound 81b, 4-fluoro-4-[2-[6-fluoro-5H-imidazo[4,3-a]isoindol-5-yl]ethyl]cyclohexane-1-carboxamide] | > 1000
19 | NC(=O)C1CCC(F)(CCC2c3c(F)cccc3-c3cncn32)CC1 (single isomer, unassigned) [Compound 81c, 4-fluoro-4-[2-[6-fluoro-5H-imidazo[4,3-a]isoindol-5-yl]ethyl]cyclohexane-1-carboxamide] | < 100
20 | NC(=O)C1CCC(F)(CCC2c3c(F)cccc3-c3cncn32)CC1 (single isomer, unassigned) [Compound 81d, 4-fluoro-4-[2-[6-fluoro-5H-imidazo[4,3-a]isoindol-5-yl]ethyl]cyclohexane-1-carboxamide] | < 100
21 | O=C(O)C1CCC(F)(CCC2c3ccccc3-c3cncn32)CC1 (single isomer, unassigned) [Compound 82a, 4-fluoro-4-(2-[5H-imidazo[4,3-a]isoindol-5-yl]ethyl)cyclohexane-1-carboxylic acid] | < 100
22 | OC(CC1c2c(Cl)cccc2-c2cncn21)C1(F)CCCCC1 (single isomer, unassigned) [Compound 83a, 2-[6-chloro-5H-imidazo[4,3-a]isoindol-5-yl]-1-(1-fluorocyclohexyl)ethan-1-ol] | > 1000
23 | OC(CC1c2c(Cl)cccc2-c2cncn21)C1(F)CCCCC1 (single isomer, unassigned) [Compound 83b, 2-[6-chloro-5H-imidazo[4,3-a]isoindol-5-yl]-1-(1-fluorocyclohexyl)ethan-1-ol] | 100 to 1000
24 | OC(CC1c2c(Cl)cccc2-c2cncn21)C1(F)CCCCC1 (single isomer, unassigned) [Compound 83c, 2-[6-chloro-5H-imidazo[4,3-a]isoindol-5-yl]-1-(1-fluorocyclohexyl)ethan-1-ol] | > 1000
25 | OC(CC1c2c(Cl)cccc2-c2cncn21)C1(F)CCCCC1 (single isomer, unassigned) [Compound 83d, 2-[6-chloro-5H-imidazo[4,3-a]isoindol-5-yl]-1-(1-fluorocyclohexyl)ethan-1-ol] | < 100
